Earlier results on 1 compound are cited in patent US20110009340A1, “COMBINATION OF AN IRON CHELATOR AND AN IMMUNOSUPPRESSANT AND USE THEREOF” (NOVARTIS AG, priority 2008, published 2011).

Consider `CC(=O)N(O)CCCCCNC(=O)CCC(=O)N(O)CCCCCNC(=O)CCC(=O)N(O)CCCCCN.CS(=O)(=O)O` [Deferoxamine mesylate USP, N-[5-[3-[(5-aminopentyl)hydroxycarbamoyl]propionamido]pentyl]-3-[[5-(N-hydroxyacetamido)pentyl]carbamoyl]propionohydroxamic acid monomethanesulfonate (salt)], for which, for the setting “methanol”, the solubility in methanol entry is “slightly soluble”. Further, the solubility in water entry (water) is given as “freely soluble”.
